In patent US20250243196A1, “CITRON KINASE INHIBITORS” (The Cleveland Clinic Foundation, priority 2021, published 2025):

Tests used:
Experiment in all cases: KinaseProfiler panel
Type in all cases: biochemical
Conditions in all cases: activity remaining
ASK1(h) = ASK1(h) (Homo sapiens (Human), UniProt Q99683); parameters: dose or concentration left out as unconfirmed
ATM(h) = ATM(h) (Homo sapiens (Human), UniProt Q13315); parameters: dose or concentration left out as unconfirmed
Axl(h) = Axl(h) (Homo sapiens (Human), UniProt P30530); parameters: dose or concentration left out as unconfirmed
Cdc7/cyclinB1(h) = Cdc7/cyclinB1(h) (Homo sapiens, UniProt O00311); parameters: dose or concentration left out as unconfirmed
CDK5/p35(h) = CDK5/p35(h) (Homo sapiens (Human), UniProt Q00535); parameters: dose or concentration left out as unconfirmed
CDKL3(h) = CDKL3(h) (Homo sapiens (Human), UniProt Q8IVW4); parameters: dose or concentration left out as unconfirmed
CK1γ2(h) = CK1γ2(h) (Homo sapiens (Human), UniProt P78368); parameters: dose or concentration left out as unconfirmed
CLK2(h) = CLK2(h) (Homo sapiens (Human), UniProt P49760); parameters: dose or concentration left out as unconfirmed
CLK3(h) = CLK3(h) (Homo sapiens (Human), UniProt P49761); parameters: dose or concentration left out as unconfirmed
Fyn(h) = Fyn(h) (Homo sapiens (Human), UniProt P06241); parameters: dose or concentration left out as unconfirmed
GRK3(h) = GRK3(h) (Homo sapiens (Human), UniProt P35626); parameters: dose or concentration left out as unconfirmed
HRI(h) = HRI(h) (Homo sapiens (Human), UniProt Q9BQI3); parameters: dose or concentration left out as unconfirmed
IGF-1R(h) = IGF-1R(h) (Homo sapiens (Human), UniProt P08069); parameters: dose or concentration left out as unconfirmed
Itk(h) = Itk(h) (Homo sapiens (Human), UniProt Q08881); parameters: dose or concentration left out as unconfirmed
MSSK1(h) = MSSK1(h) (Homo sapiens (Human), UniProt Q9UPE1)
NEK3(h) = NEK3(h) (Homo sapiens (Human), UniProt P51956); parameters: dose or concentration left out as unconfirmed
NEK4(h) = NEK4(h) (Homo sapiens (Human), UniProt P51957); parameters: dose or concentration left out as unconfirmed
NEK9(h) = NEK9(h) (Homo sapiens (Human), UniProt Q8TD19); parameters: dose or concentration left out as unconfirmed
PAK6(h) = PAK6(h) (Homo sapiens (Human), UniProt Q9NQU5); parameters: dose or concentration left out as unconfirmed
PAR-1Bα(h) = PAR-1Bα(h) (Homo sapiens (Human), UniProt Q7KZI7); parameters: dose or concentration left out as unconfirmed
Pim-2(h) = Pim-2(h) (Homo sapiens (Human), UniProt Q9P1W9); parameters: dose or concentration left out as unconfirmed
PKCδ(h) = PKCδ(h) (Homo sapiens (Human), UniProt Q05655); parameters: dose or concentration left out as unconfirmed
PKCζ(h) = PKCζ(h) (Homo sapiens (Human), UniProt Q05513); parameters: dose or concentration left out as unconfirmed
PRP4(h) = PRP4(h) (Homo sapiens (Human), UniProt Q13523); parameters: dose or concentration left out as unconfirmed
RIPK2(h) = RIPK2(h) (Homo sapiens (Human), UniProt O43353); parameters: dose or concentration left out as unconfirmed
Rsk3(h) = Rsk3(h) (Homo sapiens (Human), UniProt Q15349); parameters: dose or concentration left out as unconfirmed
SAPK2a(h) = SAPK2a(h) (Homo sapiens (Human), UniProt Q16539); parameters: dose or concentration left out as unconfirmed
SGK2(h) = SGK2(h) (Homo sapiens (Human), UniProt Q9HBY8); parameters: dose or concentration left out as unconfirmed
SNRK(h) = SNRK(h) (Homo sapiens (Human), UniProt Q9NRH2); parameters: dose or concentration left out as unconfirmed
SRMS(h) = SRMS(h) (Homo sapiens (Human), UniProt Q9H3Y6); parameters: dose or concentration left out as unconfirmed
Tec(h) activated = Tec(h) activated (Homo sapiens (Human), UniProt P42680); parameters: dose or concentration left out as unconfirmed
Tie2 (h) = Tie2 (h) (Homo sapiens (Human), UniProt Q02763); parameters: dose or concentration left out as unconfirmed
ZIPK(h) = ZIPK(h) (Homo sapiens (Human), UniProt O43293); parameters: dose or concentration left out as unconfirmed

ATM(h), sequence (Q13315 whole entry): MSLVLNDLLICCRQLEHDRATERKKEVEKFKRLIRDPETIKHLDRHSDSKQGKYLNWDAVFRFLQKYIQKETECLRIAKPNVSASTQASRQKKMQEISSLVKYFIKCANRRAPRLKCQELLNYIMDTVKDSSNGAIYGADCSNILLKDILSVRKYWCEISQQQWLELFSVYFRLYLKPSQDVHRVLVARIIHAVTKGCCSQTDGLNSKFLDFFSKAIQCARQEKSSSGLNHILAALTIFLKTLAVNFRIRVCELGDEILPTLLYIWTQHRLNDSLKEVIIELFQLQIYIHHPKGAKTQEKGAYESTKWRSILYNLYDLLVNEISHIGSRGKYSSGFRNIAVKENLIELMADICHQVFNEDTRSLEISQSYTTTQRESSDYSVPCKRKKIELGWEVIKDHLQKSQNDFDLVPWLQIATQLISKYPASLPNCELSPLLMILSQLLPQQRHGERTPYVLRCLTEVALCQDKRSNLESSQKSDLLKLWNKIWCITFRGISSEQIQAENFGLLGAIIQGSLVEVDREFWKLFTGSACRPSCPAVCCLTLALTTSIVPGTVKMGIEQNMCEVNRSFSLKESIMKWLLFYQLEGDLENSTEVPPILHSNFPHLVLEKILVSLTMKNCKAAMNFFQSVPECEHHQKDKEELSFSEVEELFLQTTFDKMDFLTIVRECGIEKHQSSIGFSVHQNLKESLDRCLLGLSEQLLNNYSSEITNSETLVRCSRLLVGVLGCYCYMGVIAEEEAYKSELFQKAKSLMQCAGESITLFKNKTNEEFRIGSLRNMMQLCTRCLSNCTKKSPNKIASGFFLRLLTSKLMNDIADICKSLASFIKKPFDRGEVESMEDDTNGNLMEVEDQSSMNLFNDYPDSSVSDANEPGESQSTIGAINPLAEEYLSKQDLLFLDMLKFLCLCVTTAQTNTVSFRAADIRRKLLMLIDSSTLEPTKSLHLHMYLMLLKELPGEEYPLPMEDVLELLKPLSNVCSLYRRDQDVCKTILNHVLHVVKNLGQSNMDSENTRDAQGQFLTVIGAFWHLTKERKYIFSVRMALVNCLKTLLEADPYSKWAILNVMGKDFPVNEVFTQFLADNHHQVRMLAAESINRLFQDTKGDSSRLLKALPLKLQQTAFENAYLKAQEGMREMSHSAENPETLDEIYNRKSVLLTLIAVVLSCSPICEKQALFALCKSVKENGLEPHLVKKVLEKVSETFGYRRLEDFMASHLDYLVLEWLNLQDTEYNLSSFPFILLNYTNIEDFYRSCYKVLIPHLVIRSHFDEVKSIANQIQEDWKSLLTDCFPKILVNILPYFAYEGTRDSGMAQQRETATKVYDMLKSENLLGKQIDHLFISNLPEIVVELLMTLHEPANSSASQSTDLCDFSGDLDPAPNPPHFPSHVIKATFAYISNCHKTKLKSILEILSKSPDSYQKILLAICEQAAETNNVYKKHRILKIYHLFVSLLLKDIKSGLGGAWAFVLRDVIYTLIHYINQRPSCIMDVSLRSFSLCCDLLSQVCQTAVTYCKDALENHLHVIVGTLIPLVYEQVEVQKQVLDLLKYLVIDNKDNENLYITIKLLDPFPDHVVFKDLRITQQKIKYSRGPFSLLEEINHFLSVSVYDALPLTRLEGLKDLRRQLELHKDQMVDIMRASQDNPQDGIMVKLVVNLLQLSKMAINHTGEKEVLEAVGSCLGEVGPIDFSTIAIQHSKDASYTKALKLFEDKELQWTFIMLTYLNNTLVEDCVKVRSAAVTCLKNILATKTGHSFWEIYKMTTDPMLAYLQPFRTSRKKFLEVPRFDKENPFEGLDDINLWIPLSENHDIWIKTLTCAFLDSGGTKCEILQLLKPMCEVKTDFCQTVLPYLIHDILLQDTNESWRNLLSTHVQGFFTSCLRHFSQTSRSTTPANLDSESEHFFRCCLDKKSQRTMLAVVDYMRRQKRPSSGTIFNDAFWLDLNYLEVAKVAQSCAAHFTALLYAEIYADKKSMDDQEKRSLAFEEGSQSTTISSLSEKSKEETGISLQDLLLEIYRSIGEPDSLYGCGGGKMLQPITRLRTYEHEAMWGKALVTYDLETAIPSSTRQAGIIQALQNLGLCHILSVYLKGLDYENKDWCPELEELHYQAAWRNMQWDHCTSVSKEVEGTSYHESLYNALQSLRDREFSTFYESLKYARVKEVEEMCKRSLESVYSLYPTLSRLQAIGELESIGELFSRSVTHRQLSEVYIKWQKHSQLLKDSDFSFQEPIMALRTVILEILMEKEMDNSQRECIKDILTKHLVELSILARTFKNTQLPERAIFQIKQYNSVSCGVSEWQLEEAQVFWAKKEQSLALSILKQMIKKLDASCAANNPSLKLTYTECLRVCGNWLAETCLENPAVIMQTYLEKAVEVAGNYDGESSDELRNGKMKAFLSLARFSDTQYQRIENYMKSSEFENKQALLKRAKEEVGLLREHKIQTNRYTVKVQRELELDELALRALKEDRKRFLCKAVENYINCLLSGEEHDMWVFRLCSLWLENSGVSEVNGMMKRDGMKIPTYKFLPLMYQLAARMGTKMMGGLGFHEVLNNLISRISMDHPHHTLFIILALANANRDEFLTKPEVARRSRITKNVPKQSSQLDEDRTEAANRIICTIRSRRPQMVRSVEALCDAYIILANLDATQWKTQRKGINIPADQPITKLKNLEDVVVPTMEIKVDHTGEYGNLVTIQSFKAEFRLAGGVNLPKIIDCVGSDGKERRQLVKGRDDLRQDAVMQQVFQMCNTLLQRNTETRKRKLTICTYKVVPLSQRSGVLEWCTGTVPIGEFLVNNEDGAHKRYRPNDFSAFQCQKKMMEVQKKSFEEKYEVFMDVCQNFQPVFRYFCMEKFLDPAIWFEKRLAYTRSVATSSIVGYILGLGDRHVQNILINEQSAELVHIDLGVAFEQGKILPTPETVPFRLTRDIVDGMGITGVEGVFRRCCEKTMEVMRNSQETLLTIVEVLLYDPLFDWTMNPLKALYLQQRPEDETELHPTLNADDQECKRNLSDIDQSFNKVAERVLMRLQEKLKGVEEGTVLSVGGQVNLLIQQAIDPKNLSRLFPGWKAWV
Tec(h) activated, sequence (P42680 whole entry): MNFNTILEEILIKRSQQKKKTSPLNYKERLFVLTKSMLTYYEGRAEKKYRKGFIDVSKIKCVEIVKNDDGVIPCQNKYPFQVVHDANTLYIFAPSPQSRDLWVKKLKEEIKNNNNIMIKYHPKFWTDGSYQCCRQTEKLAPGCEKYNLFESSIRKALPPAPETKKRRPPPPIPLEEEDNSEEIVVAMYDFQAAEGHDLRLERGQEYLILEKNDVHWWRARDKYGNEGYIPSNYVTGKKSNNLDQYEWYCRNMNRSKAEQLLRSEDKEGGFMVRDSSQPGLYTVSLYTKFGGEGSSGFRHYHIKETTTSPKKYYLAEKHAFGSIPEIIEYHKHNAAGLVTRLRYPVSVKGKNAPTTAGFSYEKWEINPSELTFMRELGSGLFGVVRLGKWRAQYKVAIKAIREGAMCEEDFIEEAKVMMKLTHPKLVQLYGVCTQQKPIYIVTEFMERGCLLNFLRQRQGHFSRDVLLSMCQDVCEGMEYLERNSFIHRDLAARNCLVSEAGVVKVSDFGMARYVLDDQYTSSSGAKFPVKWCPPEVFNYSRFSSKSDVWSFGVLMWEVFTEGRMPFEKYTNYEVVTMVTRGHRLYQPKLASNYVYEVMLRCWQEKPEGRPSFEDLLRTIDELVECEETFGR
IGF-1R(h), sequence (P08069 31-1367): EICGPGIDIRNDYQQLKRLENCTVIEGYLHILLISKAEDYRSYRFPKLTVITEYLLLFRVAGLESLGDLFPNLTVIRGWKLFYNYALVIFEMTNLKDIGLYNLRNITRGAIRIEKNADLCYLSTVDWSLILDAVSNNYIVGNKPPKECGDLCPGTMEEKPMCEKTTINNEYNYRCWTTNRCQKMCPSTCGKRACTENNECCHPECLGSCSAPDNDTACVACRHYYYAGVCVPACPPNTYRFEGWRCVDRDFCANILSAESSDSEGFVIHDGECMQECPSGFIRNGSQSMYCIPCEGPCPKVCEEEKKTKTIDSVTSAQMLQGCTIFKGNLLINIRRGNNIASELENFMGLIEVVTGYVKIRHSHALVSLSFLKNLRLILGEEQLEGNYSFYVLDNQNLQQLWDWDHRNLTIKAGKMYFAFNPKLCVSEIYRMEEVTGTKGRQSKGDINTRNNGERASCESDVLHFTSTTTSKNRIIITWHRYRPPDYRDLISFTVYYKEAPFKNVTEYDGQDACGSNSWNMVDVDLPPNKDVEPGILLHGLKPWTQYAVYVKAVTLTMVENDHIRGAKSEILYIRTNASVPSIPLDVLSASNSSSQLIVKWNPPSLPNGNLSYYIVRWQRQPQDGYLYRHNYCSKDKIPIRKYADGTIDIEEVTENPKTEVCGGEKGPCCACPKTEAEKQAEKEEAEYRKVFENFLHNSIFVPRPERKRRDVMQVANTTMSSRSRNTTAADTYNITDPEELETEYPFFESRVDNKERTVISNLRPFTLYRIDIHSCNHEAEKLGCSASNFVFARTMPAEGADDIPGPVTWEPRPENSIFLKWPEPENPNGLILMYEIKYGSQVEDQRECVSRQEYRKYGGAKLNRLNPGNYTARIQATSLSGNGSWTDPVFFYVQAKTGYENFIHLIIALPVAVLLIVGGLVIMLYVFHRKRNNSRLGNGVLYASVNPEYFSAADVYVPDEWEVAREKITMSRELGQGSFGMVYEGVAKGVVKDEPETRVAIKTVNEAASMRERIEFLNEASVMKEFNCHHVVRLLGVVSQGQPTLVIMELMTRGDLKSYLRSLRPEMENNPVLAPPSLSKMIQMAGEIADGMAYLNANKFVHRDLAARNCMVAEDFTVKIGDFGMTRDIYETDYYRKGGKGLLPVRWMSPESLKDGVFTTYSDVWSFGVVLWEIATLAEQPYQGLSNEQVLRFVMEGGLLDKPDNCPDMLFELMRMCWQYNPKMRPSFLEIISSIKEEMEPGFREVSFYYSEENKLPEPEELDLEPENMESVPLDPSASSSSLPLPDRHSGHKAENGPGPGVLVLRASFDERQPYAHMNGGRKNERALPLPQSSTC

`Cc1cc2c(-c3ccc(NC(=O)[C@H](N)CC(C)(C)C)cc3C)ccnc2[nH]1` [Compound F-90, (2R)-2-Amino-4,4-dimethyl-N-[3-methyl-4-(2-methyl-1H-pyrrolo[2,3-b]pyridin-4-yl)phenyl]pentanamide] was tested, and the “% Activity” value (ASK1(h)) was 100%, the “% Activity” value (ATM(h)) was 103% and the “% Activity” value (Axl(h)) was 91%. The “% Activity” value (Cdc7/cyclinB1(h)) was 75%, the “% Activity” value (CDK5/p35(h)) was 79% and the “% Activity” value (CDKL3(h)) was 79%. For the same compound, the “% Activity” value (CK1γ2(h)) was 97%, the “% Activity” value (CLK2(h)) was 106% and the “% Activity” value (CLK3(h)) was 107%. The “% Activity” value (Fyn(h)) was 100%, the “% Activity” value (GRK3(h)) was 81% and the “% Activity” value (HRI(h)) was 80%. The “% Activity” value (IGF-1R(h)) was 98%, the “% Activity” value (Itk(h)) was 86% and the “% Activity” value (MSSK1(h)) was 134%. The “% Activity” value (NEK3(h)) was 110%, the “% Activity” value (NEK4(h)) was 90% and the “% Activity” value (NEK9(h)) was 79%. The “% Activity” value (PAK6(h)) was 101%, the “% Activity” value (PAR-1Bα(h)) was 88% and the “% Activity” value (Pim-2(h)) was 117%. For the same compound, the “% Activity” value (PKCδ(h)) was 93%, the “% Activity” value (PKCζ(h)) was 88% and the “% Activity” value (PRP4(h)) was 100%. The “% Activity” value (RIPK2(h)) was 97%, the “% Activity” value (Rsk3(h)) was 112% and the “% Activity” value (SAPK2a(h)) was 94%. For the same compound, the “% Activity” value (SGK2(h)) was 82%, the “% Activity” value (SNRK(h)) was 111% and the “% Activity” value (SRMS(h)) was 86%. For the same compound, the “% Activity” value (Tec(h) activated) was 126%, the “% Activity” value (Tie2 (h)) was 99% and the “% Activity” value (ZIPK(h)) was 94%.
